Experimental data: patent US9463330B2, “Delivery of skin care products” (INTERNATIONAL SCIENTIFIC PTY LTD, priority 2010, dated 2016)

Assays:
human skin = assay: Delivery of Curcumin into human skin by Multi-Photon Microscopy (Example 4); assay type: in vivo; conditions: 0.5% w/w in mineral oil, one hour, volar forearm
Excerpt: • 1) Mineral oil and a solution of Curcumin in mineral oil (0.5% w/w). • 2) 35 mm×35 mm segments of ETP008 and ETP012 magnetic materials; ETP008 being a parallel linear array of common pole pairs of 450 gauss peak flux with a centre to centre spatial separation of 4 mm; ETP012 being an oriented displaced dipolar magnetic element array created by drawing a secondary flux pattern over a linear pattern comprising 2.0 mm poles, creating a pair of displaced dipolar magnetic elements of pitch of 2.5 pairs per centimeter, with the inter-pair flux gradient being 700 gauss or 1750 gauss per centimeter and the secondary field elements being oriented at 90 degrees to the primary and consisting of parallel pairs of displaced dipolar magnetic elements of pitch of 1.5 mm, creating 3.5 pairs per centimeter, with 300 gauss per centimeter oriented flux. • 3) 35 mm×35 mm segments of a “passive” non-magnetic material which is identical to the active materials in all respects except for the presence of the magnetic field. • 4) Six healthy human subjects between the ages of 20 and 40. • 5) Multi-Photon Microscopy apparatus and computer software capable of processing Multi-Photon microscopy images. […]

human epidermis [1] = assay: Time dependent epidermal thickness change by OCT after Urea, two magnetic array types vs passive (Example 2); assay type: in vivo; conditions: for increase in epidermal thickness: passive regions
Excerpt: In a further in vivo experience, two examples of arrays comprising pairs of displaced magnetic dipolar elements of the present invention were studied to illustrate the essential requirement for the pairs of displaced magnetic dipolar elements to be correctly configured to the diamagnetic property of the active ingredient to be delivered, in addition to the dielectric properties of the target receptor barrier.
Urea was applied to skin in a similar manner to Example 1. The urea and occlusive dressings were removed at 10 minute time periods to take measurements using OTC, with the urea and occlusive dressing being immediately replaced after each set of measurements. Each site was imaged in triplicate for each time point (i.e. three sites, triplicate images, seven time points). The laser images were then analysed to determine the differential change in skin morphology in response to the penetration of urea into facial skin under the influence of two different configurations of the present invention. FIG. 12 summaries this experiment, with the thickness of the epidermis provided next to the image.
Magnetic array Type ETP000 is a magnetic array in which a parallel linear array of common pole pairs of 250 gauss peak flux with a centre to centre spatial separation of 2 mm. Magnetic array Type ETP008 is a parallel linear array of common pole pairs of 450 gauss peak flux with a centre to centre spatial separation of 4 mm.

human epidermal tissues = assay: Time dependent epidermal thickness change after 5% Urea gel, four magnetic array configurations vs passive (Example 3); assay type: in vivo; conditions: 30 and 60 minutes
Description: As a further example, an additional experiment was undertaken to explore the time dependent changes in measured epidermal thickness using four different configurations of the present invention when compared to passive application.
As in previous examples, all test areas of skin were treated using a 5% Urea gel formation and occluded with Parafilm. The urea and occlusive dressings were removed at 30 minutes and 60 minutes to allow measurements to be taken, with the urea and dressing being immediately replaced after the 30 minute test. Four different arrangements of the pairs of displaced magnetic dipolar elements present invention were studied to elucidate the complex relationship between enhanced delivery to human skin and the specific arrangements of the pairs of displaced dipolar elements that make up the present invention.
The four arrangements of pairs of displaced dipolar elements used in this experiment were as follows:
Type ETP000 was a form of the present invention is which a parallel linear array of common pole pairs of 250 gauss peak flux with a centre to centre spatial separation of 2 mm.
Type ETP006 was a combination of two intersecting parallel linear common pole arrays at 90 degrees orientation to each other having a peak magnetic flux of 300 gauss and a spatial separation between pairs of 3.5 mm.
Type ETP008 was a parallel linear array of common pole pairs of 450 gauss peak flux with a centre to centre spatial separation of 4 mm.
Type ETP011 was a combination of two intersecting parallel linear common pole arrays at 90 degrees orientation to each other having a peak magnetic flux of 150 gauss and a spatial separation between pairs of 3 mm.
The segment marked Passive indicted the normal changes in epidermal thickness in response to topical and occluded application of a Urea Gel. This is considered the control.

human epidermis [2] = assay: In vitro diffusion of urea across human epidermal membranes in Franz-type cells (Example 5); assay type: in vitro ADME; conditions: 5% urea gel
Excerpt: • 1) 5% w/w urea in VersaBase Gel (PCCA, Huston, Tex.). • 2) 11 mm diameter discs of flexible magnetic array matrix (ETP008) material and “passive” non-magnetic material which are identical to the active materials in all respects except for the presence of the magnetic field. • 3) Passive occlusive material consisting of a polymer film of similar thickness and cut to the same dimensions as the active magnetic polymer material. • 4) Epidermal membranes obtained from human skin sourced from abdominal region following abdominoplasty surgery. • 5) Pyrex glass Franz-type diffusion cells (enabling permeation across epidermal membranes of cross sectional area approximately 1.18 cm^2); receptor volume approximately 3.5 mL. • 6) Phosphate buffered saline (PBS). • 7) Thermostatted water bath with magnetic stirring capability. • 8) DMAB reagent (4% w/v) prepared with conc. sulphuric acid (4% v/v) in alcohol (95%). • 9) Digital portable LCR meter (TH2821/A/B, Changzhou Tonghui Electronic Co., Ltd, China). Method Preparation of Epidermal Membranes
Epidermal membranes were obtained by the heat separation method (Kligman & Christophers, 1963 Preparation of isolated sheets of human stratum corneum. Arch. Dermatol. 88: 70-73).
• 1) The membrane was placed between the donor and receptor compartment of the cell and allowed to equilibrate for 1 h with PBS in the receptor compartment which was stirred continuously with a magnetic stirrer. • 2) PBS was placed in the donor (1 mL) and receptor (approx. 3.5 mL) compartments of the cell which were then placed in a water bath maintained at 37±0.5° C. • 3) Epidermal membrane integrity was determined by visual inspection over a bright light and electrical resistance (kΩ) measurements using a digital portable LCR meter (TH2821/A/B, Changzhou Tonghui Electronic Co., Ltd, China). The measurements were taken by immersing the stainless steel probe lead tips, one each in the donor and receptor compartments (Fasano et al, 2002 Rapid integrity assessment of rat and human epidermal membranes for in vitro dermal regulatory testing: correlation of electrical resistance with tritiated water permeability. Toxicol. In Vitro 16: 731-40). […] Spectroscopic Analyses:
Urea quantification was based on the analytical method of Knorst et al 1997 (Analytical methods for measuring urea in pharmaceutical formulations. J. Pharm. Biomed. Anal. 15: 1627-32), a modified derivatisation by p-dimethylaminobenzaldehyde (DMAB) to convert urea into a coloured compound.
Derivatisation of urea in skin diffusate employed equal volumes of sample solution and the DMAB reagent (4% w/v) which was prepared with conc. sulphuric acid (4% v/v) in alcohol (95%). In this case 200 μL of the urea sample was mixed with 200 μL of the DMAB reagent. After 10 min the absorbance of the coloured derivatised solution was measured at 420 nm using a UVmini-1240 UV-Vis spectrophotometer (Shimadzu Scientific Instruments) against an appropriate reagent blank (receptor solution processed as for skin permeation receptor solution samples). Spectrophotometric analysis was carried out for quantitative analysis of urea that permeated the skin. […] The limit of detection (LOD) and limit of quantitation (LOQ) of the assay were 0.83 and 2.5 μg/mL respectively.
The results were compiled from nine cells containing the magnetic array film and eight control cells containing the passive non-magnetic film. A comparison of the cumulative amount of urea penetrating the epidermis to the receptor solution (μg/cm^2) versus time (mins) was plotted for passive and magnetic array enhanced applications (FIG. 16).

Curcumin concentrations in the skin compared with passive material (human skin; ETP008 magnetic material) | Curcumin concentrations in the skin compared with passive material (human skin; ETP012 magnetic material) | mean cumulative permeation over 2 h (human epidermis [2]; magnetic array material ETP008, mean±sem) [μg/cm^2] | lag time (human epidermis [2]; magnetic film array ETP008) [min] | steady state flux (human epidermis [2]; magnetic film array ETP008) [μg/cm^2·min] | lag time (human epidermis [2]; non-magnetic passive material) [min] | steady state flux (human epidermis [2]; non-magnetic passive material) [μg/cm^2·min] | mean cumulative permeation over 2 h (human epidermis [2]; non-magnetic passive material, mean±sem) [μg/cm^2] | SMILES | epidermal thickness change (human epidermis [1]; Magnetic array Type ETP000, 30 minutes) [%] | epidermal thickness change (human epidermis [1]; Magnetic array Type ETP000, 60 minutes) [%] | epidermal thickness change (human epidermis [1]; Magnetic array Type ETP008, 30 minutes) [%] | epidermal thickness change (human epidermis [1]; Magnetic array Type ETP008, 60 minutes) [%] | increase in epidermal thickness (human epidermis [1]; 30 minutes) [%] | increase in epidermal thickness (human epidermis [1]; 60 minutes) [%] | penetration (changes in epidermal thickness) compared to passive (human epidermal tissues; Type 011 arrangement, 5% Urea gel) | penetration (changes in epidermal thickness) compared to passive (human epidermal tissues; Type ETP000, 5% Urea gel) | penetration (changes in epidermal thickness) compared to passive (human epidermal tissues; Type ETP006, 5% Urea gel) | penetration (changes in epidermal thickness) compared to passive (human epidermal tissues; Type ETP008, 5% Urea gel)
significant increase | significant increase | – | – | – | – | – | – | COc1cc(/C=C/C(=O)CC(=O)/C=C/c2ccc(O)c(OC)c2)ccc1O [Curcumin] | – | – | – | – | – | – | – | – | – | –
– | – | 89.54±7.34 | 21.13 ± 6.27 | 0.75±0.06 | 40.58 ± 3.98 | 0.24±0.03 | 20.83±2.02 | NC(N)=O [Urea] | 119.5 | 113.25 | 112.6 | 118 | 103.2 | 110 | decreasing normal penetration | enhanced penetrations to different degrees over time | enhanced penetrations to different degrees over time | enhanced penetrations to different degrees over time
